Assay [1] deals with human RORγt ligand binding domain (RORγt LBD) (Homo sapiens (Human), UniProt P51449). Kind of assay: RORγt ThermoFluor® assay (thermal shift binding). The method in brief: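 Thermal shift with 0.065 mg/mL RORγt LBD and 60 μM 1,8-ANS in 100 mM Hepes pH 7.0, 10 mM NaCl, 2.5 mM GSH, 0.002% Tween-20.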
(In general: In DSF a fluorescence change marks the thermal transition of the protein.)

The target in the next assay is full-length human RORγt (Homo sapiens (Human), UniProt P51449). Kind of assay: RORγt (full-length human) reporter assay, conditions A or B, HEK293T cells. It is filed as cell-based. The following applies: for inhibition at 2 µM: 2 μM compound concentration; for IC50: RORγt (FL) Reporter Assay A or B, IC50, HEK293T cells; for inhibition at […]: 0.33 μM compound concentration (footnote *****). Put shortly: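 After 16–20 h, dual firefly/Renilla luciferase luminescence was read. Firefly signal was normalized to DMSO and saturating reference compound, then to Renilla, and fitted for IC50; % inhibition is versus DMSO.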
Background: In a reporter assay the amount or activity of a reporter protein is the signal.

The mark [2] stands for this setting: read-out: ThermoFluor® Assay, Kd.
The mark [3] stands for this setting: HEK-293T, read-out: RORγt (FL) Reporter Assay A or B, % inhibition.
The mark [4] stands for this setting: HEK-293T, 0.67 μM compound concentration (footnote ****), read-out: RORγt (FL) Reporter Assay A or B, % inhibition.
Where [5] appears, read: HEK-293T, 3 μM compound concentration (footnote *), read-out: RORγt (FL) Reporter Assay A or B, % inhibition.

Read-outs that look alike come from different tables or passages of the source.

human RORγt ligand binding domain (RORγt LBD), sequence (P51449 other isoform, or with tags, fused parts or gaps): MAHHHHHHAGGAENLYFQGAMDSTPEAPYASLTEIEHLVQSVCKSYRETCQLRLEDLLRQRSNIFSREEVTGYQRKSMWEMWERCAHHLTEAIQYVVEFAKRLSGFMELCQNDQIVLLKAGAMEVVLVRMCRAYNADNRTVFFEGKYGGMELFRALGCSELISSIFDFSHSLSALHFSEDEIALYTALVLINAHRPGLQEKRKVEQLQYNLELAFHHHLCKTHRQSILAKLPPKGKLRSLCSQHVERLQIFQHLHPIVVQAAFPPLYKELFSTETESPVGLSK
full-length human RORγt, sequence (P51449 other isoform, or with tags, fused parts or gaps): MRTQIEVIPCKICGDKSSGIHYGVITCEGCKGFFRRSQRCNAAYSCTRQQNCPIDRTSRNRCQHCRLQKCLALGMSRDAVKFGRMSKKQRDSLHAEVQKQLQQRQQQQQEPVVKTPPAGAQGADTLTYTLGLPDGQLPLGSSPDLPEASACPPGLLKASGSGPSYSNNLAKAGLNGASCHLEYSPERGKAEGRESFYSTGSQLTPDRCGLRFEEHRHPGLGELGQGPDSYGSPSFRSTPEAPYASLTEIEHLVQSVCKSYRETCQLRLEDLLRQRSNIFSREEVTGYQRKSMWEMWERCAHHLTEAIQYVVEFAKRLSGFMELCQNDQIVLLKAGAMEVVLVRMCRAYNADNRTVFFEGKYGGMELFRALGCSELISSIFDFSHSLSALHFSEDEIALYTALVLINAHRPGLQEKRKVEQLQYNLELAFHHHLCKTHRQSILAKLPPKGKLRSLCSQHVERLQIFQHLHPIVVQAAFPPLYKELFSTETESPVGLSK

`CCn1nc(C(=O)NC[C@H]2CC[C@H](S(C)(=O)=O)CC2)c(Cl)c1-c1ccc(CCCC(F)(F)F)cc1OC` [Example 80, 4-Chloro-1-ethyl-5-(2-methoxy-4-(4,4,4-trifluorobutyl)phenyl)-N-(((1r,4r)-4-(methylsulfonyl)cyclohexyl)methyl)-1H-pyrazole-3-carboxamide]: the Kd in assay [1] (setting [2]) was 2.3 nM. Further, the inhibition at 2 µM at full-length human RORγt (setting [3]) was determined as 89%. The same compound gave an IC50 against full-length human RORγt of 6 nM.

As to `CCn1nc(C(=O)NC[C@]2(O)CC[C@@H](S(C)(=O)=O)CC2)c(Cl)c1-c1ccc(CCCC(F)(F)F)cc1OC` [Example 81, 4-Chloro-1-ethyl-N-(((1s,4s)-1-hydroxy-4-(methylsulfonyl)cyclohexyl)methyl)-5-(2-methoxy-4-(4,4,4-trifluorobutyl)phenyl)-1H-pyrazole-3-carboxamide], the Kd in assay [1] (setting [2]) turned out to be 5.1 nM. Also, the inhibition at 2 µM on full-length human RORγt (setting [3]) came out at 89%. The compound also gave an IC50 against full-length human RORγt of 13 nM.

Consider `CCn1nc(C(=O)NC[C@H]2CC[C@H](S(C)(=O)=O)CC2)c(C)c1-c1ccc(CCCC(F)(F)F)cc1OC` [Example 82, 1-Ethyl-5-(2-methoxy-4-(4,4,4-trifluorobutyl)phenyl)-4-methyl-N-(((1r,4r)-4-(methylsulfonyl)cyclohexyl)methyl)-1H-pyrazole-3-carboxamide], for which the Kd in assay [1] (setting [2]) was determined as 4.1 nM. In addition, the inhibition at 0.67 µM at full-length human RORγt (setting [4]) was 87%. This compound came in with an IC50 on full-length human RORγt of 14 nM.

Regarding `CCn1nc(C(=O)NC[C@]2(O)CC[C@@H](S(C)(=O)=O)CC2)c(C)c1-c1ccc(CCCC(F)(F)F)cc1OC` [Example 83, 1-Ethyl-N-(((1s,4s)-1-hydroxy-4-(methylsulfonyl)cyclohexyl)methyl)-5-(2-methoxy-4-(4,4,4-trifluorobutyl)phenyl)-4-methyl-1H-pyrazole-3-carboxamide], the Kd in assay [1] (setting [2]) is 11 nM. In addition, the inhibition at 0.67 µM on full-length human RORγt (setting [4]) worked out at 87%. On full-length human RORγt, this compound returned an IC50 of 33 nM.

Take `CCn1nc(C(=O)NC[C@H]2CC[C@H](S(C)(=O)=O)CC2)c(Cl)c1-c1ccc(CC(C(F)(F)F)C(F)(F)F)cc1OC` [Example 84, 4-Chloro-1-ethyl-5-(2-methoxy-4-(3,3,3-trifluoro-2-(trifluoromethyl)propyl)phenyl)-N-(((1r,4r)-4-(methylsulfonyl)cyclohexyl)methyl)-1H-pyrazole-3-carboxamide]: the Kd in assay [1] (setting [2]) stood at 0.7 nM. On full-length human RORγt (setting [3]), the inhibition at 0.67 µM worked out at 87%. In addition, the IC50 against full-length human RORγt amounted to 10 nM.

For the compound `CCn1nc(C(=O)NC[C@H]2CC[C@H](S(C)(=O)=O)CC2)c(Cl)c1-c1ccc(CC(C(F)(F)F)C(F)(F)F)cc1OC(F)F` [Example 86, 4-Chloro-5-(2-(difluoromethoxy)-4-(3,3,3-trifluoro-2-(trifluoromethyl)propyl)phenyl)-1-ethyl-N-(((1r,4r)-4-(methylsulfonyl)cyclohexyl)methyl)-1H-pyrazole-3-carboxamide], in assay [1] (setting [2]), the Kd came out at 0.17 nM. Moreover, the inhibition at 0.67 µM at full-length human RORγt (setting [4]) was determined as 103%. The IC50 against full-length human RORγt was 5.6 nM.

`CCn1nc(C(=O)NC[C@H]2CC[C@H](S(C)(=O)=O)CC2)c(C)c1-c1ccc(CC(C(F)(F)F)C(F)(F)F)cc1OC(F)F` [Example 87, 5-(2-(Difluoromethoxy)-4-(3,3,3-trifluoro-2-(trifluoromethyl)propyl)phenyl)-1-ethyl-4-methyl-N-(((1r,4r)-4-(methylsulfonyl)cyclohexyl)methyl)-1H-pyrazole-3-carboxamide]: the Kd in assay [1] (setting [2]) was determined as 0.14 nM. Moreover, at full-length human RORγt (HEK-293T, 0.07 μM compound concentration (footnote *********), read-out: RORγt (FL) Reporter Assay A or B, % inhibition), the inhibition at 0.07 µM was determined as 100%. Moreover, the IC50 at full-length human RORγt amounted to 3 nM.

On to `CCn1nc(C(=O)NC[C@]2(O)CC[C@@H](S(C)(=O)=O)CC2)c(Cl)c1-c1ccc(CC(C)(C)C(F)(F)F)cc1C#N` [Example 88, 4-Chloro-5-(2-cyano-4-(3,3,3-trifluoro-2,2-dimethylpropyl)phenyl)-1-ethyl-N-(((1s,4s)-1-hydroxy-4-(methylsulfonyl)cyclohexyl)methyl)-1H-pyrazole-3-carboxamide], for which the Kd in assay [1] (setting [2]) stood at 15 nM. For the same compound, the inhibition at 3 µM at full-length human RORγt (setting [3]) stood at 88%. Moreover, the IC50 on full-length human RORγt was 130 nM.

`CCn1nc(C(=O)NC[C@H]2CC[C@H](S(C)(=O)=O)CC2)c(Cl)c1-c1ccc(CC(C)(C)CC(F)(F)F)cc1OC(F)F` [Example 89, 4-Chloro-5-(2-(difluoromethoxy)-4-(4,4,4-trifluoro-2,2-dimethylbutyl)phenyl)-1-ethyl-N-(((1r,4r)-4-(methylsulfonyl)cyclohexyl)methyl)-1H-pyrazole-3-carboxamide]: the Kd in assay [1] (setting [2]) was 0.24 nM. For the same compound, on full-length human RORγt (setting [3]), the inhibition at […] amounted to 98%. The compound also yielded an IC50 on full-length human RORγt of 5.4 nM.

Take `CCn1nc(C(=O)NC[C@]2(O)CC[C@@H](S(C)(=O)=O)CC2)c(Cl)c1-c1ccc(CC(C)(C)CC(F)(F)F)cc1OC(F)F` [Example 90, 4-Chloro-5-(2-(difluoromethoxy)-4-(4,4,4-trifluoro-2,2-dimethylbutyl)phenyl)-1-ethyl-N-(((1s,4s)-1-hydroxy-4-(methylsulfonyl)cyclohexyl)methyl)-1H-pyrazole-3-carboxamide]: the dissociation constant (Kd) in assay [1] (setting [2]) amounted to 0.51 nM. Also, on full-length human RORγt (setting [3]), the inhibition at […] amounted to 91%. On full-length human RORγt, this compound gave an IC50 of 9.6 nM.

As to `CCn1nc(C(=O)NC[C@]2(CO)CC[C@@H](S(C)(=O)=O)CC2)c(Cl)c1-c1ccc(CC(C)(C)C(F)(F)F)cc1OC(F)F` [Example 91, 4-Chloro-5-(2-(difluoromethoxy)-4-(3,3,3-trifluoro-2,2-dimethylpropyl)phenyl)-1-ethyl-N-(((1s*,4s*)-1-(hydroxymethyl)-4-(methylsulfonyl)cyclohexyl)methyl)-1H-pyrazole-3-carboxamide], the Kd in assay [1] (setting [2]) is 0.24 nM. In addition, the inhibition at 1 µM at full-length human RORγt (HEK-293T, 1 μM compound concentration (footnote ***), read-out: RORγt (FL) Reporter Assay A or B, % inhibition) turned out to be 99%. Moreover, the IC50 against full-length human RORγt came out at 3.7 nM.

For `CCn1nc(C(=O)NC[C@]2(O)CC[C@@H](S(C)(=O)=O)CC2)c(Cl)c1-c1ccc(C(O)CCC(F)(F)F)cc1OC(F)F` (stereo partly drawn) [Example 98, 4-Chloro-5-(2-(difluoromethoxy)-4-(4,4,4-trifluoro-1-hydroxybutyl)phenyl)-1-ethyl-N-(((1s,4s)-1-hydroxy-4-(methylsulfonyl)cyclohexyl)methyl)-1H-pyrazole-3-carboxamide], in assay [1] (setting [2]), the Kd was 310 nM. Also, on full-length human RORγt (setting [5]), the inhibition at 3 µM was 89%. At full-length human RORγt, this compound registered a half-maximal inhibitory concentration (IC50) of 71 nM.

With `CCn1nc(C(=O)NC[C@]2(O)CC[C@@H](S(C)(=O)=O)CC2)c(Cl)c1-c1ccc(C2(O)CCC(F)(F)CC2)cc1OC(F)F` [Example 104, 4-Chloro-5-(4-(4,4-difluoro-1-hydroxycyclohexyl)-2-(difluoromethoxy)phenyl)-1-ethyl-N-(((1s,4s)-1-hydroxy-4-(methylsulfonyl)cyclohexyl)methyl)-1H-pyrazole-3-carboxamide], the Kd in assay [1] (setting [2]) was found to be 47 nM. In addition, on full-length human RORγt (setting [5]), the inhibition at 3 µM is 98%. The same compound had an IC50 against full-length human RORγt of 220 nM.

For `CCn1nc(C(=O)NC[C@]2(O)CC[C@@H](S(C)(=O)=O)CC2)c(Cl)c1-c1ccc(C(=O)C(C)(C)C(F)(F)F)cc1OC(F)F` [Example 105, 4-Chloro-5-(2-(difluoromethoxy)-4-(3,3,3-trifluoro-2,2-dimethylpropanoyl)phenyl)-1-ethyl-N-(((1s,4s)-1-hydroxy-4-(methylsulfonyl)cyclohexyl)methyl)-1H-pyrazole-3-carboxamide], the Kd in assay [1] (setting [2]) is 3.3 nM. Also, the inhibition at 3 µM at full-length human RORγt (setting [3]) is 28%. The compound further returned an IC50 against full-length human RORγt of 13 nM.

As to `CCn1nc(C(=O)NC[C@H]2CC[C@H](S(C)(=O)=O)CC2)c(Cl)c1-c1ccc(C(O)(C(F)(F)F)C(F)(F)F)cc1OC(F)F` [Example 116, 4-Chloro-5-(2-(difluoromethoxy)-4-(1,1,1,3,3,3-hexafluoro-2-hydroxypropan-2-yl)phenyl)-1-ethyl-N-(((1r,4r)-4-(methylsulfonyl)cyclohexyl)methyl)-1H-pyrazole-3-carboxamide], the Kd in assay [1] (setting [2]) was 0.15 nM. In addition, the inhibition at 3 µM on full-length human RORγt (setting [5]) turned out to be 106%. Moreover, the IC50 against full-length human RORγt was determined as 3.4 nM.

With `CCn1nc(C(=O)NC[C@]2(O)CC[C@@H](S(C)(=O)=O)CC2)c(Cl)c1-c1ccc(C(O)(C(F)(F)F)C(F)(F)F)cc1OC(F)F` [Example 117, 4-Chloro-5-(2-(difluoromethoxy)-4-(1,1,1,3,3,3-hexafluoro-2-hydroxypropan-2-yl)phenyl)-1-ethyl-N-(((1s,4s)-1-hydroxy-4-(methylsulfonyl)cyclohexyl)methyl)-1H-pyrazole-3-carboxamide], in assay [1] (setting [2]), the Kd was 0.27 nM. The inhibition at 3 µM at full-length human RORγt (setting [5]) worked out at 102%. Besides, inhibition on full-length human RORγt was half-maximal at 4.2 nM (IC50).

In the case of `CCn1nc(C(=O)NC[C@]2(C(=O)O)CC[C@@H](S(C)(=O)=O)CC2)c(Cl)c1-c1ccc(CC(C)(C)C(F)(F)F)cc1OC(F)F` [Example 119, (1s*,4s*)-1-((4-Chloro-5-(2-(difluoromethoxy)-4-(3,3,3-trifluoro-2,2-dimethylpropyl)phenyl)-1-ethyl-1H-pyrazole-3-carboxamido)methyl)-4-(methylsulfonyl)cyclohexane-1-carboxylic Acid], the Kd in assay [1] (ThermoFluor® Assay, Kd) was 1500 nM. For the same compound, the inhibition at 6 µM at full-length human RORγt (HEK-293T, read-out: RORγt (FL) Reporter Assay A or B, % inhibition @ 6 μM, 6 μM compound concentration) was 14%. The IC50 on full-length human RORγt was > 6000 nM.

The term Kd denotes the free concentration of one partner at which half of the binding sites on the other are occupied at equilibrium, for simple one-to-one binding. What is called inhibition is the drop in the measured response relative to a control, in per cent. The term IC50 denotes the concentration needed to halve the response being measured. Lower therefore signals higher potency.

Source of the values: US10975037B2 (priority 2018, dated 2021).
